The values below come from patent publication US20170296456A1, “PRODUCTS AND METHODS FOR TREATING PERIORBITAL DYSCHROMIA” (The Procter & Gamble Company, priority 2016, published 2017).

In this assay the test system is B16-F1 mouse melanoma cell line. As to the kind of experiment: B16 melanin synthesis inhibition assay. As to conditions: B16-F1 cells, OD 410 nm. The format is cell-based. How it is done: In this example, a commercially available B16-F1 mouse melanoma cell line from American Tissue Culture Collection, Virginia, USA was employed in a conventional melanin synthesis inhibition assay. The cell culture medium used in the assay is 500 mL of Dulbecco's Modified Eagle's Medium (DMEM), 50 mL Fetal Bovine Serum (FBS), and 5 mL of penicillin-streptomycin liquid. B16-F1 cells that are cultured in this medium and grown to greater than 90% confluency will synthesize melanin. While not intending to be bound by any theory, it is hypothesized that the melanin synthesis is stimulated by the culture medium and/or stress induced by growth to a high confluency. […] Equipment used in the assay include a CO2 incubator, such as a Forma Series Model 3110 by Therma Scientific, Massachusetts, USA; a hemocytometer, such as a Bright Line model by Hauser Scientific, Pennsylvania, USA; and a UV-Visible Spectrum Plate Reader, such as a SpectraMax250 from Molecular Devices, California, USA. […] Day 3: The cells from the T-150 flask are trypsinized, and the concentration of cells is determined using the hemacytometer. […] Read the 96 well plate using the UV-Vis Plate Reader at 410 nm to optically measure the amount of melanin produced between wells that are treated with the fava bean extract and control wells that are not. […] The concentration of test agent needed to provide the IC 50 is recorded. […]

The structures appear in SMILES notation.

As to `O=c1cc(CO)occ1O` [Kojic Acid], the “Concentration Needed for IC 50” value is recorded as 0.01 v/v.
The same measure for `Oc1ccc(OC2CCCCO2)cc1` (centres unmarked) [Deoxyarbutin]: 0.008 v/v.
